Measured values as given in US20130315920A1, “Cross Protective Epitopes of Aspergillus Fumigatus and Candida Albicans” (Cell Medica Limited, priority 2010, published 2013).

What was measured:
[1] = tested on: T-cell lines of 7 donors with different MHC class II alleles; test: Epitope mapping of Crf1 peptides with IFN-γ ELISPOT; assay type: cell-based, human; conditions: 7 donors tested, peptide-pulsed autologous DC
Text: (§1) As the identification of potential protective fungal antigens is rather intricate due to the extensiveness of fungal genomes, we analyzed 6 different A. fumigatus recombinant proteins based on their previously reported immunogeneic reactivity in mice and humans^7,10. […] By contrast, GPI-anchored extracellular cell wall glucanase Crf1 and secreted protein peptidase induced high IFN-γ in 6 of 7 and 5 of 10 tested donors, respectively. The response was mediated by CD4^+ TH1 cells, as MHC class II blocking antibody nearly abrogated IFN-γ release (data not shown). Due to the broad response and the sequence similarity to the C. albicans orthologue Crh1, we focused in subsequent experiments on the protein Crf1. By epitope mapping of 7 healthy individuals with different MHC class II alleles, we identified 10 potential candidate epitopes (Table 1). Based on the results obtained by epitope mapping, the probability of antigen presentation by certain MHC class II alleles assessed by epitope prediction^11, previously reported immunogeneic reactivity^12 and sequence similarity to the C. albicans homologue Crh1, we then generated CD4^+ TH1 T-cell clones specific for the peptides p1, p22, p27, p41, p48, p59, p69 and p84 (FIG. 1a and Table 1).
A peptide library covering the complete Crf1 sequence consisting of 94 15-mer peptides overlapping by […] (aa) was divided into sub-pools of 10 peptides and 94 single peptides (p1-p94) (PANATecs). 3 11-mer peptides of p40/41 overlapping by 2aa ([…], […], HTYTIDWTKDA) were obtained from JPT Peptide Technologies.
(§2) For analysis of recombinant proteins and epitope mapping, T-cell lines were generated by incubation of 1×10^7 PBMC per well in 6-well cell culture plates with 5 μg/ml protein or peptide for 7d in the presence of 5 U/ml IL-2 (Proleukin, Chiron). Antigen specificity was analyzed by IFN-γ ELISA^42 after restimulation with autologous monocytes incubated overnight with 5 μg/ml protein in a responder to stimulator (R:S) ratio of 5:1. Epitope mapping was performed by IFN-γ ELISPOT^39 after stimulation with peptide-pulsed autologous DC at a R:S ratio of 10:1.

[2] = tested on: T-cell lines from PBMC of healthy donors; test: IFN-γ ELISA of T-cell lines stimulated with recombinant A. fumigatus proteins; assay type: cell-based, human; conditions: 5 μg/ml protein
Text: as §1
A. fumigatus superoxide dismutase^34, catalase^35, peptidase^36 and 1,3-beta-glucanosyl-transferase Gel1^30 were produced in the yeast Pichia pastoris as described^37. Extracellular cell wall glucanase Crf1^37 (cDNA provided by Utz Reichard) and the major allergen and cytotoxin AspF1^10 were expressed with FLAG-Tags in the human cell line phoenix GALV^38.
as §2

[3] = tested on: DC transfected with Crf1 mRNA; test: Peptide-specific T-cell clones stimulated with Crf1 mRNA-transfected DC (IFN-γ); assay type: cell-based, human; conditions: for Response of peptide-specific CD4+ T-cell clones to endogenously processed antigen: all donors
Experimental: (§3) T-cell cloning was performed as described in below. T-cell clones were stimulated either with mature peptide-pulsed (2.5 μg/ml) or Crf1 mRNA-transfected DC, immature DC incubated for 24 h with A. fumigatus cell extract (20 μg/ml) in the presence of cytokine maturation cocktail or immature DC incubated for 24 h with inactivated A. fumigatus or C. albicans fungus (multiplicity of infection 3) in a R:S ratio of 5:1.
For T-cell cloning 6×10^7 PBMC were stimulated overnight with 5 μg/ml peptide and 1 μg/ml CD40 antibody (HB14, Miltenyi Biotec). Cells were labelled with anti-CD154^+ microbeads and isolated by magnetic cell separation according to the manufacturers' instructions (Miltenyi Biotec). Selected cells were cultured with γ-irradiated autologous PBMC (ratio 1:50) and cytokines were supplemented as described above. On d14, T-cell clones were generated by limiting dilution in 96-well plates and expanded using the rapid expansion protocol previously described^50.
A. fumigatus Crf1 cDNA was cloned into the pGEM4Z vector (provided by Kris Thielemans) and in vitro transcribed using mMESSAGE mMACHINE T Ultra Kit (Ambion) according to the manufacturers' instructions. Crf1 was fused to the N-terminal domain of the invariant chain to enhance antigen presentation by MHC class II^51,52. Maturated DC were electroporated with 15 μg mRNA at 300V and 150 μF using the EQUIBIO EasyjecT Plus® apparatus (EQUIBIO) in serum-free medium (OptiMEM, Gibco)^41.

[4] = tested on: A. fumigatus cell extract; test: Peptide-specific T-cell clones stimulated with DC incubated with A. fumigatus cell extract (IFN-γ); assay type: cell-based, Aspergillus fumigatus; conditions: extract 20 μg/ml, DC incubated 24 h
Experimental: as §3
(§4) Fungal extracts were generated as described^48 and protein content was measured by Bradford protein assay (Perbio Science) according to the manufacturers' instructions. For inactivated fungus Aspergillus conidia were inoculated in growth medium^49 and cultured for 0, 4, 8 or 12 h. Candida species were cultured for 24 h. Fungi were inactivated with 70% ethanol. Ethanol-inactivated fungi and extracts were validated for sterility by subculturing on Sabouraud dextrose agar.

C. albicans = test: Peptide-specific T-cell clones stimulated with inactivated C. albicans yeast; assay type: cell-based, Candida albicans; conditions: inactivated C. albicans yeast, established strain
Text: A. fumigatus Crf1 p41-specific T-cell clones are cross-reactive to C. albicans and can be activated by different clinical isolates of both fungi. (a) All A. fumigatus Crf1 p41-specific T-cell clones from different donors respond to stimulation with inactivated C. albicans yeast. IFN-γ values are given after subtraction of the negative control. Shown is 1 clone per antigen and donor (representative experiments, n≧3). (b) A. fumigatus Crf1 p41-specific T-cell clones respond to different inactivated clinical isolates of germinating A. fumigatus conidia and C. albicans yeast.
as §3, §4

[5] = tested on: A. flavus, A. nidulans, A. niger, A. terreus, C. glabrata and C. krusei; test: Cross-reactivity of T-cell clones to other Aspergillus and Candida species; assay type: cell-based; conditions: data not shown
Text: We then analyzed if our T-cell clones might cross-react to other clinically relevant Aspergillus and Candida species such as A. flavus, A. nidulans, A. niger, A. terreus, C. glabrata and C. krusei because they also express proteins with some sequence similarity to A. fumigatus Crf1. […] Thus, p41-specific TH1 cells represent a core repertoire in antifungal immune responses being reactive to A. fumigatus but also to C. albicans, the second most important pathogenic fungus in HSCT patients.
Fungal strains A. fumigatus D141, A. nidulans FGSCA4, C. albicans SC5314 and clinical isolates A. fumigatus, A. terreus, A. flavus, A. niger, C. albicans, C. glabrata and C. krusei were provided by Sven Krappmann, Joachim Morschhäuser and Reno Frei.

Work on “PPNKGLAASTYTADF (peptide epitope of A. fumigatus Crf1) [p9, Crf1 aa 33-47]” yielded a No. of responders [1] of 3.

In the case of superoxide dismutase, the “IFN-γ response” value [2] is reported as “only weak interferon-γ (IFN-γ) responses in some donors”.

With “SSSSVTSSTTSTASS (peptide epitope of A. fumigatus Crf1) [p69, Crf1 aa 273-287]” the No. of responders [1] was 3, the “Response of peptide-specific CD4+ T-cell clones to endogenously processed antigen” value (shortened to “Response … to endogenously processed antigen”) [3] was “None of the CD4^+ T-cell clones specific for the peptides p48, p69 and p84 responded to Crf1 mRNA-transfected DC” and the “Number of T-cell clones reacting to Crf1 mRNA-transfected DC/number of peptide-specific T-cell clones” value (“Number of T-cell clones reacting” below) ([3]; donor 1) was 0/3. The “Number of T-cell clones reacting” value ([3]; donor 4) was 0/2.

“YTMYVKSVRIENANP (11-mer peptide of p40/41) [p59, Crf1 aa 233-247]” was tested, and the No. of responders [1] was 5, the “Response … to endogenously processed antigen” value [3] was “only some of the p1-, p22-, p27- and p59-specific CD4^+ T-cells clones responded to endogenously processed antigen” and the “Number of T-cell clones reacting” value ([3]; donor 5) was 1/3. The “Number of T-cell clones reacting” value ([3]; donor 6) was 2/2, the “Number of T-cell clones reacting” value ([3]; donor 12) was 1/7 and the “Response of peptide-specific T-cell clones to A. fumigatus extract” value [4] was “only very few T-cell clones specific for Cal p27 and Crf1 p59”. For the same molecule, the “Cross-reactivity of peptide-specific T-cell clones to C. albicans” value (C. albicans) was “none of the Crf1 p1-, Cal p27- and Cal p59-specific T-cell clones could be activated” and the “Cross-reactivity to other Aspergillus and Candida species” value [5] was “none of the Crf1 p27-, p41- and p59-specific T-cell clones showed any cross-reactivity to these fungi”.

catalase was tested, and the “IFN-γ response” value [2] was “only weak interferon-γ (IFN-γ) responses in some donors”.

For “TRFPQTPMRLRLGSW (peptide epitope of A. fumigatus Crf1) [p49, Crf1 aa 193-207]”, the No. of responders [1] was 4.

In the case of “AKGGTRFPQTPMRLR (peptide epitope of A. fumigatus Crf1) [p48, Crf1 aa 189-203]”, the No. of responders [1] is reported as 3, the “Response … to endogenously processed antigen” value [3] is reported as “None of the CD4^+ T-cell clones specific for the peptides p48, p69 and p84 responded to Crf1 mRNA-transfected DC” and the “Number of T-cell clones reacting” value ([3]; donor 3) is reported as 0/7. For the same molecule, the “Number of T-cell clones reacting” value ([3]; donor 4) was 0/4 and the “Number of T-cell clones reacting” value ([3]; donor 11) was 0/5.

With “GSSNTGSGSGSGSGS (peptide epitope of A. fumigatus Crf1) [p84, Crf1 aa 333-347]” the No. of responders [1] was 5, the “Response … to endogenously processed antigen” value [3] was “None of the CD4^+ T-cell clones specific for the peptides p48, p69 and p84 responded to Crf1 mRNA-transfected DC” and the “Number of T-cell clones reacting” value ([3]; donor 4) was 0/4. The “Number of T-cell clones reacting” value ([3]; donor 11) was 0/5.

For “MYFKYTAAALAAVLP (peptide epitope of A. fumigatus Crf1) [p1, Crf1 aa 1-15]”, the No. of responders [1] was 4, the “Response … to endogenously processed antigen” value [3] was “only some of the p1-, p22-, p27- and p59-specific CD4^+ T-cells clones responded to endogenously processed antigen” and the “Number of T-cell clones reacting” value ([3]; donor 5) was 3/3. The “Number of T-cell clones reacting” value ([3]; donor 6) was 1/5, the “Number of T-cell clones reacting” value ([3]; donor 7) was 0/6 and the “Number of T-cell clones reacting” value ([3]; donor 12) was 10/10. For the same molecule, the “Response of peptide-specific T-cell clones to A. fumigatus extract” value [4] was “most Crf1 p1-specific T-cell clones of 2 of 4 donors responded to A. fumigatus extract”, the “Cross-reactivity of peptide-specific T-cell clones to C. albicans” value (C. albicans) was “none of the Crf1 p1-, Cal p27- and Cal p59-specific T-cell clones could be activated” and the “Cross-reactivity to other Aspergillus and Candida species” value [5] was “weak cross-reactivity to A. flavus, A. nidulans and A. terreus”.

Work on “TGSSTSAGASATPEL (peptide epitope of A. fumigatus Crf1) [p89, Crf1 aa 353-367]” yielded a No. of responders [1] of 4.

Molecule “SAGPYTMYVKSVRIE (peptide epitope of A. fumigatus Crf1) [p58, Crf1 aa 229-243]” has a No. of responders [1] of 3.

B1: AspF1: recombinant A. fumigatus major allergen and cytotoxin AspF1 (His136Leu) (protein)
chain: ATWTCINQQLNPKTNKWEDKRLLYSQAKAESNSHHAPLSDGKTGSSYPHWFTNGYDGNGKLIKGRTPIKFGKADCDRPPKHSQNGMGKDDHYLLEFPTFPDGHDYKFDSKKPKEDPGPARVIYTYPNKVFCGIVALQRGNQGDLRLCSH
With B1 the “IFN-γ response” value [2] was “only weak interferon-γ (IFN-γ) responses in some donors”.
